Columns and labels:
PHD2 (EGLN1) = PHD2 (EGLN1) (Homo sapiens (Human), UniProt Q9GZT9); experiment: HIF-PH assay (14CO2 capture), PHD2 enzyme inhibition; format: biochemical; details: Table 1; individual measurement; read-out: IC50 (μM) PHD2
Description: (§1) Ketoglutaric acid α-[1-^14C]-sodium salt, alpha-ketoglutaric acid sodium salt, and HPLC purified peptide may be obtained from commercial sources, e.g., Perkin-Elmer (Wellesley Mass.), Sigma-Aldrich, and SynPep Corp. (Dublin Calif.), respectively. Peptides for use in the assay may be fragments of HIFα as described above or as disclosed in International Publication WO 2005/118836, incorporated by reference herein. HIF-pH, e.g., PHD1 (EGLN2) or PHD2 (EGLN1), can be expressed in, e.g., insect Hi5 cells, and partially purified, e.g., through a SP ion exchange chromatography column. Enzyme activity is determined by capturing ^14CO2 using an assay described by Kivirikko and Myllyla (1982, Methods Enzymol. 82:245-304). Assay reactions contain 50 mM HEPES (pH 7.4), 100 μM α-ketoglutaric acid sodium salt, 0.30 mCi/mL ketoglutaric acid α-[1-^14C]-sodium salt, 40 μM FeSO4, 1 mM ascorbate, 1541.8 units/mL Catalase, with or without 50 μM peptide substrate and various concentrations of compound of the invention. Reactions are initiated by addition of HIF-PH enzyme.
(§2) The peptide-dependent percent turnover is calculated by subtracting percent turnover in the absence of peptide from percent turnover in the presence of substrate peptide. Percent inhibition and IC50 are calculated using peptide-dependent percent turnover at given inhibitor concentrations. Calculation of IC50 values for each inhibitor is conducted using GraFit software (Erithacus Software Ltd., Surrey UK).
(§3) The PHD2/PHD1 is the ratio of the IC50 of the compound for each enzyme.

PHD1 (EGLN2) = PHD1 (EGLN2) (Homo sapiens (Human), UniProt Q96KS0); experiment: HIF-PH assay (14CO2 capture), PHD1 enzyme inhibition; format: biochemical; details: for IC50: individual measurement, read-out: IC50 (μM) PHD1
Description: as §1, §2, §3

[1] = Table 1, ratio of the IC50 of the compound for each enzyme

Sequence of PHD1 (EGLN2) (Q96KS0 whole entry): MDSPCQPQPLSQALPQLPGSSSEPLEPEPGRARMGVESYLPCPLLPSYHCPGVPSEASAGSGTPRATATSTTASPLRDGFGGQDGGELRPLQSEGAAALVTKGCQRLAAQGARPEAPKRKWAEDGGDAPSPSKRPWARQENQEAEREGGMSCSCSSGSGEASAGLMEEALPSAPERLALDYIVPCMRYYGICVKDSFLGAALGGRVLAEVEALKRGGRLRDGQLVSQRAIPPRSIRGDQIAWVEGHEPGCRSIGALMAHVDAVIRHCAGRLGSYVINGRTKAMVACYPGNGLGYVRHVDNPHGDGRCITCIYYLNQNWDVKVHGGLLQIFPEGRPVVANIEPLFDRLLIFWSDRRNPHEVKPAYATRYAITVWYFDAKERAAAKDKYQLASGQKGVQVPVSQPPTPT
Sequence of PHD2 (EGLN1) (Q9GZT9 whole entry, the tested form may be a part): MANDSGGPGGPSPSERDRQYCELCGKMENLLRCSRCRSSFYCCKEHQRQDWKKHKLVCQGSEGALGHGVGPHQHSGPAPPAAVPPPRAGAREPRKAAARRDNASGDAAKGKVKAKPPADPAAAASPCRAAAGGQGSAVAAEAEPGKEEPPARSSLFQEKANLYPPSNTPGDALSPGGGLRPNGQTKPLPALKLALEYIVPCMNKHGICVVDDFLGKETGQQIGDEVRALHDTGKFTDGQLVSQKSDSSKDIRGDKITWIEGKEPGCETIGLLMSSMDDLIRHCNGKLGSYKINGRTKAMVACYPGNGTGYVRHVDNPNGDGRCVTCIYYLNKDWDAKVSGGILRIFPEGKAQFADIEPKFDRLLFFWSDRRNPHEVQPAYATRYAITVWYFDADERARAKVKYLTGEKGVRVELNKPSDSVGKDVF

Row | Compound | IC50 (PHD2 (EGLN1)) [µM] | IC50 (PHD1 (EGLN2); Table 1) [µM] | PHD2/PHD1 (PHD1 (EGLN2); [1]) | PHD2/PHD1 (PHD1 (EGLN2); Table 2 comparative data, IC50 PHD2/IC50 PHD1)
1 | COC(=O)N[C@H](CCNC(=O)c1nc(C#N)c2cc(Oc3ccccc3)ccc2c1O)C(=O)O [Compound 53, (R)-4-(1-Cyano-4-hydroxy-7-phenoxyisoquinoline-3-carboxamido)-2-(methoxycarbonylamino)butanoic acid] | 1.4 | 0.24 | 5.8 | –
2 | N#Cc1nc(C(=O)N[C@H]2CCCC[C@H]2C(=O)O)c(O)c2ccc(Oc3ccccc3)cc12 (relative stereo) [Compound 32, cis-2-(1-Cyano-4-hydroxy-7-phenoxyisoquinoline-3-carboxamido)cyclohexanecarboxylic acid] | 182 | 27.9 | 6 | –
3 | CCC(CNC(=O)c1nc(C#N)c2cc(Oc3ccccc3)ccc2c1O)C(=O)O (stereo not shown) [Compound 57, 2-((1-Cyano-4-hydroxy-7-phenoxyisoquinoline-3-carboxamido)methyl)butanoic acid] | 5.1 | 0.54 | 9 | –
4 | CC(C)(CNC(=O)c1nc(C#N)c2cc(NC(=O)c3ccc(F)cc3)ccc2c1O)C(=O)O [Compound 139, 3-{[1-cyano-7-(4-Fluoro-benzoylamino)-4-hydroxy-isoquinoline-3-carbonyl]-amino}-2,2-dimethyl-propionic acid] | 200 | 5.65 | 35 | –
5 | C[C@](O)(CNC(=O)c1nc(C#N)c2cc(Oc3ccccc3)ccc2c1O)C(=O)O [Compound 73, (S)-3-(1-Cyano-4-hydroxy-7-phenoxyisoquinoline-3-carboxamido)-2-hydroxy-2-methylpropanoic acid] | 3.38 | 0.74 | 5 | –
6 | N#Cc1nc(C(=O)NC[C@H](Cc2ccccc2)C(=O)O)c(O)c2ccc(Oc3ccccc3)cc12 [Compound 49, (S)-2-Benzyl-3-[(1-cyano-4-hydroxy-7-phenoxy-isoquinoline-3-carbonyl)-amino]-propionic acid] | 23.9 | 1.66 | 14 | –
7 | N#Cc1nc(C(=O)NCC(C(=O)O)c2ccccc2F)c(O)c2ccc(Oc3ccccc3)cc12 (stereo not shown) [Compound 182, 3-[(1-Cyano-4-hydroxy-7-phenoxy-isoquinoline-3-carbonyl)-amino]-2-(2-fluoro-phenyl)-propionic acid] | 11.9 | 1.81 | 7 | –
8 | N#Cc1nc(C(=O)NCCC[C@H](N)C(=O)O)c(O)c2ccc(Oc3ccccc3)cc12.O=C(O)C(F)(F)F [Compound 163, (S)-2-[Amino-5-(1-cyano-4-hydroxy-7-phenoxy-isoquinoline-3-carbonyl)-amino]-pentanoic acid 2,2,2-trifluoroacetic acid (1:1)] | > 200 | 43.6 | 5 | –
9 | CC(C)(CNC(=O)c1nc(C#N)c2cc(CCc3ccccc3)ccc2c1O)C(=O)O [Compound 122, 3-[(1-Cyano-4-hydroxy-7-phenethyl-isoquinoline-3-carbonyl)-amino]-2,2-dimethyl-propionic acid] | 29.3 | 2.57 | 11 | –
10 | C[C@H](CNC(=O)c1nc(C#N)c2cc(Oc3ccccc3)ccc2c1O)C(=O)O [Compound 92, 3-[(1-Cyano-4-hydroxy-7-phenoxy-isoquinoline-3-carbonyl)-amino]-2-(R)-methyl-propionic acid] | 3.88 | 0.28 | 14 | –
11 | N#Cc1nc(C(=O)NCC[C@H](O)C(=O)O)c(O)c2ccc(Oc3ccccc3)cc12 [Compound 83, 4-[(1-Cyano-4-hydroxy-7-phenoxy-isoquinoline-3-carbonyl)-amino]-2-(S)-hydroxy-butyric acid] | 2.75 | 0.24 | 12 | –
12 | O=C(O)CCNC(=O)c1ncc2ccc(Oc3ccccc3)cc2c1O [Compound 112, 3-[(4-Hydroxy-6-phenoxy-isoquinoline-3-carbonyl)-amino]-propionic acid] | 200 | 23.7 | 8 | –
13 | N#Cc1nc(C(=O)NC(CC(=O)O)c2cccc(Cl)c2)c(O)c2ccc(Oc3ccccc3)cc12 (stereo not shown) [Compound 165, 3-(3-Chloro-phenyl)-3-[(1-cyano-4-hydroxy-7-phenoxy-isoquinoline-3-carbonyl)-amino]-propionic acid] | 28.1 | 1.51 | 19 | –
14 | N#Cc1nc(C(=O)NCC2(C(=O)O)CCC2)c(O)c2ccc(Oc3ccccc3)cc12 [Compound 14, 1-{[(1-Cyano-4-hydroxy-7-phenoxy-isoquinoline-3-carbonyl)-amino]-methyl}-cyclobutanecarboxylic acid] | 3.52 | 0.31 | 11 | –
15 | N#Cc1nc(C(=O)NC2(CC(=O)O)CCC2)c(O)c2ccc(Oc3ccccc3)cc12 [Compound 106, {1-[(1-Cyano-4-hydroxy-7-phenoxy-isoquinoline-3-carbonyl)-amino]-cyclobutyl}-acetic acid] | 74.5 | 7.79 | 10 | –
16 | CC(C)(CNC(=O)c1ncc2cc(Sc3ccccc3)ccc2c1O)C(=O)O [Compound 127, 3-[(4-Hydroxy-7-phenylsulfanyl-isoquinoline-3-carbonyl)-amino]-2,2-dimethyl-propionic acid] | 63.1 | 7.69 | 8 | –
17 | CC(C)(CNC(=O)c1nc(C#N)c2cc(-c3ccccc3)ccc2c1O)C(=O)O [Compound 138, 3-[(1-Cyano-4-hydroxy-7-phenyl-isoquinoline-3-carbonyl)-amino]-2,2-dimethyl-propionic acid] | 24.1 | 1.13 | 21 | –
18 | N#Cc1nc(C(=O)N[C@H]2CCC[C@H]2C(=O)O)c(O)c2ccc(Oc3ccccc3)cc12 (relative stereo) [Compound 33, cis-2-[(1-Cyano-4-hydroxy-7-phenoxy-isoquinoline-3-carbonyl)-amino]-cyclopentanecarboxylic acid] | 94.8 | 16.9 | 6 | –
19 | CC(C)(CC(=O)O)NC(=O)c1nc(C#N)c2cc(OCc3ccccc3)ccc2c1O [Compound 152, 3-[(7-Benzyloxy-1-cyano-4-hydroxy-isoquinoline-3-carbonyl)-amino]-3-methyl-butyric acid] | 55.1 | 4.35 | 13 | –
20 | N#Cc1nc(C(=O)N[C@@H](CC(=O)O)c2cccnc2)c(O)c2ccc(Oc3ccccc3)cc12 [Compound 175, 3-(S)-[(1-Cyano-4-hydroxy-7-phenoxy-isoquinoline-3-carbonyl)-amino]-3-pyridin-3-yl-propionic acid] | 25.1 | 4.51 | 6 | –
21 | CC(C)(CCCNC(=O)c1nc(C#N)c2cc(Oc3ccccc3)ccc2c1O)C(=O)O [Compound 95, 5-[(1-Cyano-4-hydroxy-7-phenoxy-isoquinoline-3-carbonyl)-amino]-2,2-dimethyl-pentanoic acid] | 3.5 | 0.74 | 5 | –
22 | N#Cc1nc(C(=O)N[C@@H](CC(=O)O)c2ccccc2F)c(O)c2ccc(Oc3ccccc3)cc12 [Compound 170, 3-(S)-[(1-Cyano-4-hydroxy-7-phenoxy-isoquinoline-3-carbonyl)-amino]-3-(2-fluoro-phenyl)-propionic acid] | 32.2 | 2.76 | 12 | –
23 | CC(CC(=O)O)NC(=O)c1nc(C#N)c2cc(Oc3ccccc3)ccc2c1O (stereo not shown) [Compound 11, 3-[(1-Cyano-4-hydroxy-7-phenoxy-isoquinoline-3-carbonyl)-amino]butyric acid] | 56.6 | 1.37 | 41 | 41
24 | O=C(O)CCNC(=O)c1ncc2cc(Oc3ccccn3)ccc2c1O [Compound 25, 3-{[4-Hydroxy-7-(pyridin-2-yloxy)-isoquinoline-3-carbonyl]-amino}-propionic acid] | 44.6 | 4.57 | 10 | –
25 | CC(C)(CNC(=O)c1nc(C#N)c2cc(Sc3ccccc3)ccc2c1O)C(=O)O [Compound 121, 3-[(1-Cyano-4-hydroxy-7-phenylsulfanyl-isoquinoline-3-carbonyl)-amino]-2,2-dimethyl-propionic acid] | 8.18 | 0.84 | 10 | –
26 | N#Cc1nc(C(=O)NCC(F)(F)C(=O)O)c(O)c2ccc(Oc3ccccc3)cc12 [Compound 65, 3-[(1-Cyano-4-hydroxy-7-phenoxy-isoquinoline-3-carbonyl)-amino]-2,2-difluoro-propionic acid] | 5.99 | 0.73 | 8 | –
27 | COc1ccc(Oc2ccc3c(O)c(C(=O)NCC(C)(C)C(=O)O)nc(C#N)c3c2)cc1 [Compound 20, 3{-[1-Cyano-4-hydroxy-7-(4-methoxy-phenoxy)-isoquinoline-3-carbonyl]-amino}-2,2-dimethyl-propionic acid] | 5.22 | 0.35 | 15 | –

From patent publication US9409892B2, “4-hydroxy-isoquinoline compounds as HIF hydroxylase inhibitors” (FIBROGEN, INC., priority 2012, dated 2016)
